pIC50: −log10 of the molar value. Where two headings read alike, the source gives them in different places.
Columns and labels:
CDK2/CyclinE = target: T1, CDK2/CyclinE (Homo sapiens, UniProt P24941); assay: CDK2/CycE kinase assay (TR-FRET); assay type: biochemical; settings: 2 mM ATP (high ATP); median; read-out: CDK2/CyclinE, 2 mM ATP (high ATP) IC50 - [mol/l] (median)
T1 construct: GST; purchased ProQinase GmbH (Freiburg, Germany); host or cells: insect cells (Sf9)
Procedure, shortened: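 GST-tagged human CDK2/CycE (Sf9-expressed, ~10 ng/mL) was preincubated 15 min with compound, then run 25 min at 22 °C with 2 mM ATP and 0.75 μM biotinylated peptide, pH 8.0. Phospho-substrate was detected by TR-FRET (anti-RB pSer807/811, Eu-anti-mouse, streptavidin-XL665), 665/620 nm ratio, normalised to no-inhibitor and no-enzyme controls.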

[1] = tested on: BRCA1 mRNA expression in MDA-MB-231 cells; assay: qRT-PCR assay: inhibition of BRCA1 mRNA expression in MDA-MB-231 cells; assay type: cell-based, human; settings: 24 h exposure, BRCA1 mRNA normalised to GAPDH, median, read-out: RTqPCR-MDA-MB-231 IC50 [mol/l] BRCA1 (median)
CDK12 = target: T2, CDK12 (Homo sapiens, UniProt Q9NYV4); assay: CDK12 protein level in CAL-120 cells (Protein Simple); assay type: cell-based; settings: 18 h, CDK12/HSP90 peak area ratio, median, read-out: CDK12 protein level in CAL-120 breast ca cells DC50 - [mol/l] (median)
T2 construct: endogenous in cells; host or cells: CAL-120 human breast cancer cells (DSMZ ACC 459)
T2 sequence (Q9NYV4 whole entry): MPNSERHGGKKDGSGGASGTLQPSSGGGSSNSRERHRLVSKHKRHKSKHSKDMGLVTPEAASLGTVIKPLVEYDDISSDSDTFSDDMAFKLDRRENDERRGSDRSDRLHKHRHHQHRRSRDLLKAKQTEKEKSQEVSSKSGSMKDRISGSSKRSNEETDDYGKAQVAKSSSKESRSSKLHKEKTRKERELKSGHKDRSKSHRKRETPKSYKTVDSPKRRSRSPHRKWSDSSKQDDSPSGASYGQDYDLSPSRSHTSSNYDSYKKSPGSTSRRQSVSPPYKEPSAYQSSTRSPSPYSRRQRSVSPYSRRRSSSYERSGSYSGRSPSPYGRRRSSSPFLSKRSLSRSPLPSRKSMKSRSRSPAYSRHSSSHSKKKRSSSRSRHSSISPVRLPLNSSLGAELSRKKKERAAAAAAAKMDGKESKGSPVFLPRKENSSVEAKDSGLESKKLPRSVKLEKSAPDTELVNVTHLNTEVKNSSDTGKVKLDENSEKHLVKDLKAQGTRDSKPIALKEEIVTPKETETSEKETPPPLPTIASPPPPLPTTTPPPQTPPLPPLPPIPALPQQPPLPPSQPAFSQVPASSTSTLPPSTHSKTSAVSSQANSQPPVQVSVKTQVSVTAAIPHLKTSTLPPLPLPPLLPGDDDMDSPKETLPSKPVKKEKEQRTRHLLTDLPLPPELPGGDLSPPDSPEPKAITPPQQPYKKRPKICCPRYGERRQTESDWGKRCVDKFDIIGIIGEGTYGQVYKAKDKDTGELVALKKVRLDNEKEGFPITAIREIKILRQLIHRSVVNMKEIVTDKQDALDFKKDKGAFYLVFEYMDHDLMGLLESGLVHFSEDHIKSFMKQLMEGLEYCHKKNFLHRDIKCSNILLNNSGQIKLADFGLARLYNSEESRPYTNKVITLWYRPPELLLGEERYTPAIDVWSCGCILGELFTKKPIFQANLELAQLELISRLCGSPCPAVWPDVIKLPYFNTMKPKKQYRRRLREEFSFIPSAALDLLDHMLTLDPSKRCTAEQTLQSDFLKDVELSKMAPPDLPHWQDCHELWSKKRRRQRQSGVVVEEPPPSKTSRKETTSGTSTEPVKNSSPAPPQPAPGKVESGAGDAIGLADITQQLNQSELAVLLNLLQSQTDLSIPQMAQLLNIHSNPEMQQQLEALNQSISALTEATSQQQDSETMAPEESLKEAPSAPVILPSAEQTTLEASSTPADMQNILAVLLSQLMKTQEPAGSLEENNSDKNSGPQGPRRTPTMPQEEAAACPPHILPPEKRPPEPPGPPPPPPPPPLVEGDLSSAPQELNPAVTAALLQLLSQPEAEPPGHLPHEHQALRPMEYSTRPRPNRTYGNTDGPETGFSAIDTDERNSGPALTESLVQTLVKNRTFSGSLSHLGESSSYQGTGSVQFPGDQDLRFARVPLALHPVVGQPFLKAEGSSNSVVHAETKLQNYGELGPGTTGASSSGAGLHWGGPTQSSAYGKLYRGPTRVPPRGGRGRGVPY
T2 sequence (O75909 whole entry partner): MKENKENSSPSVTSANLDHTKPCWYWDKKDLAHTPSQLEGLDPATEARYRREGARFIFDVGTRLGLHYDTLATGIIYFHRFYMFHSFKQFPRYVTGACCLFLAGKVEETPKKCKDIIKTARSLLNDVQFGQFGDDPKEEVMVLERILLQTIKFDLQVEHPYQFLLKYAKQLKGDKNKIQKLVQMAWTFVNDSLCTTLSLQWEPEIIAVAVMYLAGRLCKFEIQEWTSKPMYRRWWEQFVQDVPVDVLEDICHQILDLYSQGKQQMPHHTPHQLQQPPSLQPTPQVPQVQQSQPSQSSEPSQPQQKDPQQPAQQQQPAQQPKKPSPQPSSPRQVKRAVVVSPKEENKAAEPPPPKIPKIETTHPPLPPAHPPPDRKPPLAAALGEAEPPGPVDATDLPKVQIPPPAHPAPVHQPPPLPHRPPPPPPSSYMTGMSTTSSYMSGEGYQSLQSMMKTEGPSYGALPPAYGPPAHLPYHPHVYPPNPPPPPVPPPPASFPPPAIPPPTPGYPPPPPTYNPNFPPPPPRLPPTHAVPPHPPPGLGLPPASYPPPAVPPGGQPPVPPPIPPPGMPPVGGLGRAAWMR
Protocol: 5. CDK12 protein level: Protein Simple (CDK12, CAL-120), Westernblot (CDK9, 12, 13)
CAL-120 human breast cancer cells (DSMZ ACC 459) were seeded at 300,000 cells/well in 6-well plates containing 2 mL of growth medium (DMEM, 10%FCS, glutamine) and incubated for 24 h at 37° C. in an humidified incubator. Test compounds were added at various concentrations, control wells received solvent (DMSO), and the plates were incubated for another 18h at 37° C. Cells were washed 2 times with PBS and lysed in 75 microL lysis buffer (MSD-Puffer (MSD, #R6OTX-2), +1% SDS+PhosSTOP (Roche #04906837001)+complete mini (Roche #04693159001)) by scraping. The lysates were pushed 2 times through Qiashedders followed by centrifugation at 14,000 rpm for 30-50 sec. The supernatant was stored at -20° C. […] CDK12 and HSP90 (loading control) were detected using anti-human CDK12 antibody (Cell Signaling Technologies (CST) #11793) at 1:25 dilution and anti-human HSP90 antibody (CST #4877) at 1:5,000 dilution. CDK12 and HSP90 peak areas were determined using Protein Simple Compass software. Ratio of CDK12/HSP90 peak areas were calculated for each sample, and DC50 values (degrading concentration to achieve 50% reduction relative to vehicle treated control) were determined by means of a 4 parameter fit.

[2] = tested on: BRCA1 mRNA expression in CAL-120 cells; assay: qRT-PCR assay: inhibition of BRCA1 mRNA expression in CAL-120 cells; assay type: cell-based; settings: Homo sapiens, median, read-out: RTqPCR-CAL-120 IC50 [mol/l] BRCA1 (median)
Protocol: 3. qRT-PCR Assay: BRCA1, ATR, MCL1 in MDA-MB-231, CAL-120
Tissue cultured human MDA-MB-231 human breast cancer cells were plated in 500 microL per well at 200,000 cells/well in a 24 well microtiter plate. After 24 h, the cells were exposed continuously for 24 h to test substances (substances were added with Tecan HP D300 Dispenser). RNA was prepared using Qiagen RNeasy MiniKit (#74106), RNA was quantified using a NanoDrop Equipment, and 600 nano gamms of RNA was coverted to cDNA using a SuperScript VILO kit (Thermofisher #11755050) followed by qPCR amplification. BRCA1 and ATR gene expression was measured by RT-qPCR and normalised to GAPDH housekeeping gene expression. qPCR primer sets have been purchased from Thermo Fisher Scientific/Applied Biosystems: BRCA1, # Hs 01556193; ATR, #Hs 00992123; GAPDH, #Hs 03929097.

| Structure (SMILES) | pIC50 (CDK2/CyclinE) | pIC50 ([1]; Homo sapiens, MDA-MB-231, 24 h) | DC50 (CDK12) | pIC50 [2] | pIC50 [1] |
| --- | --- | --- | --- | --- | --- |
| c1ccc2[nH]c(CNc3nn(C4CCOCC4)c4nc(C5CC5)cnc34)nc2c1 [Example 16, N-[(1H-benzimidazol-2-yl)methyl]-6-cyclopropyl-1-(oxan-4-yl)-1H-pyrazolo[3,4-b]pyrazin-3-amine] | < 4.70 | 7.89 | 31.1 nM | 7.19 |  |
| Cn1nc(NCc2nc3ccccc3[nH]2)c2ncc(C3CC3)nc21 [Example 15, N-[(1H-benzimidazol-2-yl)methyl]-6-cyclopropyl-1-methyl-1H-pyrazolo[3,4-b]pyrazin-3-amine] | < 4.70 | 6.88 |  |  |  |
| Fc1ccc2[nH]c(CNc3nn(C4CCOCC4)c4nc(C5CC5)cnc34)nc2c1 [Example 53, 6-cyclopropyl-N-[(5-fluoro-1H-benzimidazol-2-yl)methyl]-1-(oxan-4-yl)-1H-pyrazolo[3,4-b]pyrazin-3-amine] | < 4.70 | 7.96 |  |  |  |
| c1ccc2[nH]c(CNc3nn(C4CCOC4)c4nc(C5CC5)cnc34)nc2c1 (single isomer, unassigned) [Example 18, (-) or (+) -N-[(1H-benzimidazol-2-yl)methyl]-6-cyclopropyl-1-[oxolan-3-yl]-1H-pyrazolo[3,4-b]pyrazin-3-amine] | < 4.70 |  |  |  | < 7.97 |
| CN1CCC(n2nc(NCc3nc4ccccc4[nH]3)c3ncc(C4CC4)nc32)CC1 [Example 1, N-[(1H-benzimidazol-2-yl)methyl]-6-cyclopropyl-1-(1-methylpiperidin-4-yl)-1H-pyrazolo[3,4-b]pyrazin-3-amine] | < 4.70 | 7.86 |  |  |  |
| CN1CCC(n2nc(NCc3nc4cc(F)c(F)cc4[nH]3)c3ncc(C4CC4)nc32)CC1 [Example 30, 6-cyclopropyl-N-[(5,6-difluoro-1H-benzimidazol-2-yl)methyl]-1-(1-methylpiperidin-4-yl)-1H-pyrazolo[3,4-b]pyrazin-3-amine] | < 4.70 | 7.93 |  |  |  |

— patent US20230192700A1, “PYRAZOLOPYRAZINES ACTING ON CANCERS VIA INHIBITION OF CDK12” (Bayer Aktiengesellschaft, priority 2020, published 2023)
